Results from patent publication US20120108559A1, “RECEPTOR ACTIVATOR OF THE RANK RECEPTOR COMPLEX INHIBITOR” (THE TRUSTEES OF THE UNIVERSITY OF PENNSYLVANIA, priority 2009, published 2012).

Tested on: murine osteoclast precursors
Experiment: TRANCE (RANKL)-induced osteoclast formation in vitro, TRAP assay
Type: cell-based
Conditions: osteoclast precursors cultured 3 days with murine CSF-1 (30 ng/mL) and TRANCE (300 ng/mL); FIG. 1
Experimental: The effects of the compound of Formula II-A-1 on TRANCE-mediated osteoclastogenesis were evaluated against murine osteoclast precursors using a TRAP (tartrate resistant acid phosphatase) assay. The techniques comprising this method are described more fully in U.S. Pat. No. 6,673,771.
Osteoclast precursors were cultured in 96-well plates (1×10^5/mL, 200 μL/well) for 3 days in the presence of murine CSF-1 (30 ng/mL) and TRANCE (300 ng/mL) with or without the compounds of Formulae III-1 and II-A-1 at the indicated concentration. After 3 days, the cells were fixed and stained for tartrate-resistant acid phosphatase (TRAP). TRAP-positive multinucleated cells were counted as osteoclast-like multinucleated cells.

Structure (SMILES): CC(=O)OCC12CCC(OC(C)=O)CC1(O)CC[C@@H]1[C@@H]2CCC2(C)C(C3=CC(=O)OC3)CCC12O (some centres unmarked) [II-A-1]
- inhibition of TRANCE induced osteoclast formation (TRAP-positive multinucleated cells): inhibited TRANCE induced osteoclast formation in vitro in a dose-dependent manner

Structure (SMILES): CC12CC[C@H]3[C@@H](CCC4(O)CC(OC(=O)CCC(=O)O)CCC34COC(=O)CCC(=O)O)C1(O)CCC2C1=CC(=O)OC1 (some centres unmarked) [III-1]
- inhibition of TRANCE induced osteoclast formation (TRAP-positive multinucleated cells): inhibited TRANCE induced osteoclast formation in vitro in a dose-dependent manner
